Values joined by “and” are separate entries in the source; they are usually repeats but may differ in a detail not shown here. Equal values may be shown once. Each block holds one molecule with its values, some of them ahead of it.
Key:
Canidae [1] = conditions: chronic; oral; diet; M/F; Dog Other; methemoglobin and sulfhemoglobin formation
Canidae [2] = conditions: oral
Rattus norvegicus [3] = conditions: chronic; duration: 2 years; oral; Increased methaemoglobin and sulfhaemoglobin levels
Mus musculus = conditions: uterotrophic, Active
Oryctolagus sp. = conditions: duration: 14 days, oral, gavage, New Zealand
Rattus norvegicus [4] = conditions: oral; for LOAEL / NOAEL: Crl: CD BR
Rattus norvegicus [5] = conditions: for LEL: uterotrophic, Active
[6] = chronic, duration: 1 years, gavage, M/F, Beagle, Mydriasis and focal neuronal degeneration
[7] = developmental, M/F, generation: F1, F1: Developmental: Uterus: Dead Fetuses + F1: Developmental: Uterus: Fetuses, Live + F1: Developmental: Whole Body: Body Weight, Fetal + F1…
[8] = reproduction developmental, F, generation: P0, P0: Developmental: Uterus: Abortions + P0: Developmental: Uterus: Implantation + P0: Developmental: Uterus: Resorptions, Early + P0: …
[9] = reproduction developmental, F, generation: P0, P0: Uterus: Abortions
[10] = reproduction developmental, F, generation: P0, P0: Whole Body: Maternal Body Weight Change
[11] = developmental, duration: 11 days, gavage, M/F, generation: F1, F1: Developmental: Uterus: Dead Fetuses + F1: Developmental: Uterus: Fetuses, Live + F1: Developmental: Whole Body: Body Weight, Fetal + F1…
[12] = developmental, duration: 11 days, gavage, M/F, Crl:CD(SD) BR, generation: F1, F1: Whole Body: Body Weight, Fetal
[13] = reproduction developmental, duration: 11 days, gavage, F, generation: P0, P0: Developmental: Uterus: Implantation + P0: Developmental: Uterus: Resorptions, Early + P0: Developmental: Uterus: Resorptions, Late + P0…
[14] = duration: 7 days, injection, subcutaneous

Compound: O=C(NC(=O)c1c(F)cccc1F)Nc1ccc(Cl)cc1 [Diflubenzuron]
LEL (Canidae [1]): 10 mg/kg-day | NOEL (Canidae [1]): 2 mg/kg-day | NOAEL (Canidae [2]; chronic, duration: 1 years, Dog Other, Increased methaemoglobin and sulfhaemoglobin levels, platelet counts and hepatic pigmentation): 2 mg/kg-day | NOAEL (Rattus norvegicus [3]): 2 mg/kg-day

Compound: CC(=O)NCC(=O)O.CC(=O)NCC(=O)O.N=C(N)c1ccc(N=NNc2ccc(C(=N)N)cc2)cc1 [Diminazene diaceturate]
LOEL (Canidae [2]; chronic, duration: 9 months, capsule, M/F, Beagle, Decreased bodyweights, mortality, prostatic malfunction, foci of softening in the brainstem, & testicular atrophy): 60 mg/kg-day | LOEL (Canidae [2]; duration: 9 months, capsule, M/F, Beagle, Decreased bodyweights, mortality, prostatic malfunction, foci of softening in the brainstem, & testicular atrophy): 60 mg/kg-day

Compound: CO[C@H]1C[C@H](O[C@H]2[C@H](C)O[C@@H](O[C@@H]3/C(C)=C/C[C@@H]4C[C@@H](C[C@]5(C=C[C@H](C)[C@@H](C6CCCCC6)O5)O4)OC(=O)[C@@H]4C=C(C)[C@@H](O)[C@H]5OC/C(=C\C=C\[C@@H]3C)[C@]54O)C[C@@H]2OC)O[C@@H](C)[C@@H]1O [Doramectin]
LOEL (Canidae [2]; duration: 3 months, gavage, M/F, Beagle, Mydriasis): 0.3 mg/kg-day | NOEL (Canidae [2]; subchronic, duration: 3 months, gavage, M/F, Dog Other, Mydriasis): 0.1 mg/kg-day

Compound: CO[C@H]1C[C@H](O[C@@H]2/C(C)=C\C[C@@H]3C[C@@H](C[C@]4(C=C[C@H](C)[C@@H](C(C)C)O4)O3)OC(=O)[C@@H]3C=C(C)[C@@H](O)[C@H]4OC/C(=C/C=C\[C@@H]2C)[C@]43O)O[C@@H](C)[C@H]1O[C@H]1C[C@@H](OC)[C@H](NC(C)=O)[C@H](C)O1 [Eprinomectin]
LOAEL (Canidae [2]; [6]): 2 mg/kg-day | NOEL (Canidae [2]; [6]): 1 mg/kg-day

Compound: C=C1C[C@]23C[C@@]1(O)CC[C@H]2[C@@]12C=C[C@H](O)[C@@](C)(C(=O)O1)[C@H]2[C@@H]3C(=O)O [Gibberellic acid]
LEL (Mus musculus; duration: 5 days, injection, subcutaneous): 0.0001 mg/day

NEL (Oryctolagus sp.; reproduction developmental, F, generation: P0, P0: Ovary: Corpora Lutea + P0: Uterus: Implantation + P0: Uterus: Resorptions, Early + P0: Uterus: Resorptions, Late + P0: Whole Body: …): 3.75 mg/kg-day | LEL (Oryctolagus sp.; [9]): 3.75 mg/kg-day | NEL (Oryctolagus sp.; [9]): 2.5 mg/kg-day | NEL (Rattus norvegicus [4]; developmental, duration: 11 days, gavage, M/F, Crl:CD(SD) BR, generation: F1, F1: Uterus: Fetuses, Dead + F1: Uterus: Fetuses, Live + F1: Whole Body: Fetal Alterations Count, External Malformations + F1: Whole Body: …): 20 mg/kg-day | NEL (Rattus norvegicus [4]; reproduction developmental, duration: 11 days, gavage, F, Crl:CD(SD) BR, generation: P0, P0: Ovary: Corpora Lutea + P0: Uterus: Implantation + P0: Uterus: Resorptions, Early + P0: Uterus: Resorptions, Late + P0: Whole Body: …): 20 mg/kg-day | NEL (Rattus norvegicus [4]; short-term, duration: 3 weeks, F, Sprague-Dawley, Kidney: Kidney Weight, Absolute + Kidney: Kidney Weight, Relative + Liver: Acyl-CoA Oxidase Activity, Liver + Liver: Catalase (CAT) Activity…): 5 mg/kg-day | LEL (Rattus norvegicus [4]; short-term, duration: 3 weeks, F, Sprague-Dawley, Liver: Copper Zinc Superoxide Dismutase (CuZnSOD) Activity, Lver + Liver: Liver Weight, Relative + Liver: Manganese Superoxide Dismutase (…): 5 mg/kg-day
Compound: CCN(CCO)S(=O)(=O)C(F)(F)C(F)(F)C(F)(F)C(F)(F)C(F)(F)C(F)(F)C(F)(F)C(F)(F)F [N-Ethyl-N-(2-hydroxyethyl)perfluorooctane sulfonamide]
LOAEL (Oryctolagus sp.; [7]): 2.5 mg/kg-day | NOAEL (Oryctolagus sp.; [7]): 1 mg/kg-day | NEL (Oryctolagus sp.; developmental, M/F, generation: F1, F1: Uterus: Fetuses, Dead + F1: Uterus: Fetuses, Live + F1: Whole Body: Body Weight, Fetal + F1: Whole Body: Fetal Alterations Count, …): 3.75 mg/kg-day | LOAEL (Oryctolagus sp.; [8]): 2.5 mg/kg-day | NOAEL (Oryctolagus sp.; [8]): 1 mg/kg-day | NOAEL (Oryctolagus sp.; reproduction developmental, F, generation: P0, P0: Reproductive: Ovary: Corpora Lutea): 3.75 mg/kg-day | LEL (Oryctolagus sp.; [10]): 2.5 mg/kg-day | NEL (Oryctolagus sp.; [10]): 1 mg/kg-day | LOAEL (Rattus norvegicus [4]; [11]): 10 mg/kg-day | NOAEL (Rattus norvegicus [4]; [11]): 5 mg/kg-day | LEL (Rattus norvegicus [4]; [12]): 10 mg/kg-day | NEL (Rattus norvegicus [4]; [12]): 5 mg/kg-day | LOAEL (Rattus norvegicus [4]; [13]): 10 mg/kg-day | NOAEL (Rattus norvegicus [4]; [13]): 5 mg/kg-day | NOAEL (Rattus norvegicus [4]; reproduction developmental, duration: 11 days, gavage, F, generation: P0, P0: Reproductive: Ovary: Corpora Lutea): 20 mg/kg-day

LEL (Mus musculus; duration: 3 days, oral): 0.1 mg/day | LEL (Rattus norvegicus [5]; duration: 14 days, injection, subcutaneous): 2 mg/day | LEL (Rattus norvegicus [5]; duration: 14 days, oral): 0.1 mg/day
Compound: C#C[C@]1(O)CC[C@H]2[C@@H]3CCC4=CC(=O)CC[C@@H]4[C@H]3CC[C@@]21C [Norethindrone]
NOEL (Rattus norvegicus [5]; Hershberger, duration: 10 days, oral, gavage, Sprague-Dawley, active + negative + Negative + neither): 10 mg/kg-day

LEL (Mus musculus; [14]): 3 mg/kg-day
Compound: COC(=O)[C@H]1[C@H]2C[C@@H]3c4[nH]c5cc(OC)ccc5c4CCN3C[C@H]2C[C@@H](OC(=O)c2cc(OC)c(OC)c(OC)c2)[C@@H]1OC [Reserpine]

Compound: Clc1ccc(C(c2ccccc2Cl)C(Cl)(Cl)Cl)cc1 (stereo unspecified) [o,p'-DDT]
LEL (Mus musculus; duration: 1 days, oral): 375 mg/kg-day and 300 mg/kg-day | LEL (Mus musculus; duration: 3 days, oral): 30 mg/kg-day | LEL (Rattus norvegicus [5]; duration: 0.25 days, injection, subcutaneous): 10 mg/day | LEL (Rattus norvegicus [5]; duration: 1 days, oral): 300 mg/kg-day | LEL (Rattus norvegicus [5]; duration: 2 days, injection, intraperitoneal): 4 mg | LEL (Rattus norvegicus [5]; duration: 2 days, injection, subcutaneous): 4 mg | LEL (Rattus norvegicus [5]; duration: 3 days, oral, diet): 250 ppm | LEL (Rattus norvegicus [5]; duration: 7 days, injection, intraperitoneal): 10 mg/day | LEL (Rattus norvegicus [5]; [14]): 50 mg/kg-day and 100 mg/kg-day | LEL (Rattus norvegicus [5]; duration: 7 days, oral): 50 mg/kg-day | LEL (Rattus norvegicus [5]; duration: 7 days, oral, diet): 500 ppm | LEL (Rattus norvegicus [5]; duration: 8 days, oral, diet): 500 ppm | LEL (Rattus norvegicus [5]; duration: 27 days, injection, intraperitoneal): 0.5 mg/day

Reference: EPA's ToxValDB 9.5
